# Measured values published in PubChem BioAssay (NCI).
#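 Grown in 96-well plates, cells were treated for 48 hours with each compound at five concentrations. Insufficient inhibition: endpoint recorded as highest concentration tested. TGI: concentration producing complete growth inhibition.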
# Tests used:
# Test in all cases: DTP human tumour cell line panel, 48 h
# UACC-62 melanoma = system: UACC-62 melanoma
# RXF 393 renal = system: RXF 393 renal
# CAKI-1 renal = system: CAKI-1 renal
# NCI-H23 lung = system: NCI-H23 lung
# BT-549 breast = system: BT-549 breast
# MCF7 breast = system: MCF7 breast
# HCC-2998 colon = system: HCC-2998 colon
# NCI-H522 lung = system: NCI-H522 lung
# HCT-116 colon = system: HCT-116 colon
# SK-MEL-28 melanoma = system: SK-MEL-28 melanoma
# K-562 leukemia = system: K-562 leukemia
# OVCAR-3 ovarian = system: OVCAR-3 ovarian
# KM12 colon = system: KM12 colon
# MDA-N = system: MDA-N
# A549 NSCLC = system: A549 NSCLC
# SN12C renal = system: SN12C renal
# T-47D breast = system: T-47D breast
# A498 renal = system: A498 renal
# SK-OV-3 ovarian = system: SK-OV-3 ovarian
# SW-620 colon = system: SW-620 colon
# HOP-92 NSCLC = system: HOP-92 NSCLC
# RPMI-8226 leukemia = system: RPMI-8226 leukemia
# MDA-MB-231 breast = system: MDA-MB-231 breast
# TK-10 renal = system: TK-10 renal
# 786-0 renal = system: 786-0 renal
# MOLT-4 leukemia = system: MOLT-4 leukemia
# SF-268 CNS = system: SF-268 CNS
# SF-295 CNS = system: SF-295 CNS
# HT29 colon = system: HT29 colon
# OVCAR-4 ovarian = system: OVCAR-4 ovarian
# HS 578T breast = system: HS 578T breast
# CCRF-CEM leukemia = system: CCRF-CEM leukemia
# SF-539 CNS = system: SF-539 CNS
# ACHN renal = system: ACHN renal
# UACC-257 melanoma = system: UACC-257 melanoma
# U251 CNS = system: U251 CNS
# OVCAR-8 ovarian = system: OVCAR-8 ovarian
# LOX IMVI melanoma = system: LOX IMVI melanoma
# PC-3 prostate = system: PC-3 prostate
# SK-MEL-5 melanoma = system: SK-MEL-5 melanoma
# NCI-H226 lung = system: NCI-H226 lung
# EKVX NSCLC = system: EKVX NSCLC
# HOP-62 NSCLC = system: HOP-62 NSCLC
# M14 melanoma = system: M14 melanoma
# HCT-15 colon = system: HCT-15 colon
# UO-31 renal = system: UO-31 renal
# MDA-MB-435 = system: MDA-MB-435
# NCI/ADR-RES ovarian = system: NCI/ADR-RES ovarian
# COLO 205 colon = system: COLO 205 colon
# IGROV1 ovarian = system: IGROV1 ovarian
# HL-60(TB) leukemia = system: HL-60(TB) leukemia
# SNB-19 CNS = system: SNB-19 CNS
# DU-145 prostate = system: DU-145 prostate
# SK-MEL-2 melanoma = system: SK-MEL-2 melanoma
# OVCAR-5 ovarian = system: OVCAR-5 ovarian
# NCI-H460 lung = system: NCI-H460 lung
# MALME-3M melanoma = system: MALME-3M melanoma
# SNB-75 CNS = system: SNB-75 CNS
compound,measurement,setting,value
CC1=C(C(=O)NNC(=O)c2ccccc2)CC(C(=O)NNC(=O)c2ccccc2)=C(C)N1,TGI,UACC-62 melanoma,> 100 µM
same,TGI,RXF 393 renal,> 100 µM
same,TGI,CAKI-1 renal,> 100 µM
same,TGI,NCI-H23 lung,> 100 µM
same,TGI,BT-549 breast,> 100 µM
same,TGI,MCF7 breast,> 100 µM
same,TGI,HCC-2998 colon,> 100 µM
same,TGI,NCI-H522 lung,> 100 µM
same,TGI,HCT-116 colon,> 100 µM
same,TGI,SK-MEL-28 melanoma,> 100 µM
same,TGI,K-562 leukemia,> 100 µM
same,TGI,OVCAR-3 ovarian,> 100 µM
same,TGI,KM12 colon,> 100 µM
same,TGI,MDA-N,> 100 µM
same,TGI,A549 NSCLC,> 100 µM
same,TGI,SN12C renal,> 100 µM
same,TGI,T-47D breast,> 100 µM
same,TGI,A498 renal,> 100 µM
same,TGI,SK-OV-3 ovarian,> 100 µM
same,TGI,SW-620 colon,> 100 µM
same,TGI,HOP-92 NSCLC,> 100 µM
same,TGI,RPMI-8226 leukemia,> 100 µM
same,TGI,MDA-MB-231 breast,> 100 µM
same,TGI,TK-10 renal,> 100 µM
same,TGI,786-0 renal,> 100 µM
same,TGI,MOLT-4 leukemia,> 100 µM
same,TGI,SF-268 CNS,> 100 µM
same,TGI,SF-295 CNS,> 100 µM
same,TGI,HT29 colon,> 100 µM
same,TGI,OVCAR-4 ovarian,> 100 µM
same,TGI,HS 578T breast,> 100 µM
same,TGI,CCRF-CEM leukemia,> 100 µM
same,TGI,SF-539 CNS,> 100 µM
same,TGI,ACHN renal,> 100 µM
same,TGI,UACC-257 melanoma,> 100 µM
same,TGI,U251 CNS,> 100 µM
same,TGI,OVCAR-8 ovarian,> 100 µM
same,TGI,LOX IMVI melanoma,> 100 µM
same,TGI,PC-3 prostate,> 100 µM
same,TGI,SK-MEL-5 melanoma,> 100 µM
same,TGI,NCI-H226 lung,> 100 µM
same,TGI,EKVX NSCLC,> 100 µM
same,TGI,HOP-62 NSCLC,> 100 µM
same,TGI,M14 melanoma,> 100 µM
same,TGI,HCT-15 colon,> 100 µM
same,TGI,UO-31 renal,> 100 µM
same,TGI,MDA-MB-435,> 100 µM
same,TGI,NCI/ADR-RES ovarian,> 100 µM
same,TGI,COLO 205 colon,> 100 µM
same,TGI,IGROV1 ovarian,> 100 µM
same,TGI,HL-60(TB) leukemia,> 100 µM
same,TGI,SNB-19 CNS,> 100 µM
same,TGI,DU-145 prostate,> 100 µM
same,TGI,SK-MEL-2 melanoma,> 100 µM
same,TGI,OVCAR-5 ovarian,> 100 µM
same,TGI,NCI-H460 lung,> 100 µM
CCCCCc1cc2cc3c(c(O)c2c(=O)[nH]1)C1(CC3)C(O)=c2c(=O)c3c(=O)cc(OC)c(=O)c=3c(=O)c2=C1O (configuration not stated),TGI,UACC-62 melanoma,4.82 µM
same,TGI,RXF 393 renal,3.55 µM
same,TGI,CAKI-1 renal,1.8 µM
same,TGI,NCI-H23 lung,2.77 µM
same,TGI,BT-549 breast,3.6 µM
same,TGI,MCF7 breast,2.23 µM
same,TGI,HCC-2998 colon,3.92 µM
same,TGI,NCI-H522 lung,1.69 µM
same,TGI,HCT-116 colon,2.8 µM
same,TGI,SK-MEL-28 melanoma,4.26 µM
same,TGI,K-562 leukemia,2.29 µM
same,TGI,OVCAR-3 ovarian,1.93 µM
same,TGI,KM12 colon,5.4 µM
same,TGI,MDA-N,3.71 µM
same,TGI,A549 NSCLC,6.06 µM
same,TGI,SN12C renal,3.42 µM
same,TGI,T-47D breast,3.58 µM
same,TGI,A498 renal,5.26 µM
same,TGI,SK-OV-3 ovarian,9.96 µM
same,TGI,SW-620 colon,3.31 µM
same,TGI,HOP-92 NSCLC,1.25 µM
same,TGI,RPMI-8226 leukemia,2.42 µM
same,TGI,MDA-MB-231 breast,2.16 µM
same,TGI,786-0 renal,2.91 µM
same,TGI,MOLT-4 leukemia,4.48 µM
same,TGI,SF-268 CNS,3.56 µM
same,TGI,SF-295 CNS,18.7 µM
same,TGI,HT29 colon,2.9 µM
same,TGI,OVCAR-4 ovarian,3.02 µM
same,TGI,HS 578T breast,15.3 µM
same,TGI,CCRF-CEM leukemia,0.884 µM
same,TGI,ACHN renal,2.18 µM
same,TGI,UACC-257 melanoma,2.14 µM
same,TGI,U251 CNS,2.75 µM
same,TGI,OVCAR-8 ovarian,3.26 µM
same,TGI,LOX IMVI melanoma,2.65 µM
same,TGI,PC-3 prostate,2.24 µM
same,TGI,SK-MEL-5 melanoma,2.22 µM
same,TGI,NCI-H226 lung,4.58 µM
same,TGI,EKVX NSCLC,3.36 µM
same,TGI,MALME-3M melanoma,2.54 µM
same,TGI,HOP-62 NSCLC,12.8 µM
same,TGI,M14 melanoma,3.22 µM
same,TGI,HCT-15 colon,2.24 µM
same,TGI,UO-31 renal,2.38 µM
same,TGI,MDA-MB-435,3.93 µM
same,TGI,NCI/ADR-RES ovarian,7.35 µM
same,TGI,SNB-75 CNS,4.68 µM
same,TGI,COLO 205 colon,0.449 µM
same,TGI,IGROV1 ovarian,4.4 µM
same,TGI,HL-60(TB) leukemia,1.41 µM
same,TGI,SNB-19 CNS,3.74 µM
same,TGI,DU-145 prostate,3.46 µM
same,TGI,SK-MEL-2 melanoma,3.3 µM
same,TGI,OVCAR-5 ovarian,5.86 µM
same,TGI,NCI-H460 lung,3.35 µM
